For one assay, the target named is T1, Cbl-b (aa36-427) (Homo sapiens, UniProt Q13191).
T1 construct: Cbl-b (aa36-427, in-house); made in house
As to the kind of experiment: Co-expressed Cbl-b with BirA biochemical assay (CBLB/E2-Ub binding, HTRF). The note with it: 0.6 nM Cbl-b co-expressed with BirA, HTRF; read-out: co-express CBLB/E2-Ub-binding assay IC50. From the text:
(§1) The assay in the absence of a Cbl-b/Cbl inhibitor, where phosphorylation of Cbl-b/Cbl by the Src kinase allows UbcH5B-Ub to bind to Cbl-b/Cbl and brings the Bodipy-Fluorescein tagged ubiquitin in proximity to the streptavidin-terbium bound to the N-terminal biotinylated Avi-tagged Cbl-b/Cbl. […] The lack of a FRET signal indicates Cbl-b/Cbl is inhibited by the Cbl-b/Cbl inhibitor.
(In general: Time-resolved FRET reads energy transfer from a long-lived donor to a nearby acceptor.)

The target in a further assay is T2, Cbl (aa49-434) (Homo sapiens, UniProt P22681).
T2 construct: Cbl (aa49-434, in-house); made in house
T2 sequence (P22681 49-434): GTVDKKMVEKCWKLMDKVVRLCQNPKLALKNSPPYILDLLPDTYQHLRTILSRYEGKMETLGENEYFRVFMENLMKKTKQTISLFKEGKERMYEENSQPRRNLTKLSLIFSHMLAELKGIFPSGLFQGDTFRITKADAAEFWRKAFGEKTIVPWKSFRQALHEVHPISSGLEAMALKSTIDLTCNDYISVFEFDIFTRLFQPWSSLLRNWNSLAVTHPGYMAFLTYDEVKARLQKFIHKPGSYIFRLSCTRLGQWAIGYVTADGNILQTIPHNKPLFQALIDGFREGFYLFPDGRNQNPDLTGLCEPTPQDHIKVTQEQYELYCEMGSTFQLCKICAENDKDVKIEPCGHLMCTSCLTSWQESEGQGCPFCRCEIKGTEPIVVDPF
As to the kind of experiment: Co-expressed Cbl with BirA biochemical assay (CBL/E2-Ub binding, HTRF). The note with it: 0.6 nM Cbl co-expressed with BirA, read-out: co-express CBL/E2-Ub-binding assay IC50.
From the text: as §1

T1 sequence (Q13191 36-427): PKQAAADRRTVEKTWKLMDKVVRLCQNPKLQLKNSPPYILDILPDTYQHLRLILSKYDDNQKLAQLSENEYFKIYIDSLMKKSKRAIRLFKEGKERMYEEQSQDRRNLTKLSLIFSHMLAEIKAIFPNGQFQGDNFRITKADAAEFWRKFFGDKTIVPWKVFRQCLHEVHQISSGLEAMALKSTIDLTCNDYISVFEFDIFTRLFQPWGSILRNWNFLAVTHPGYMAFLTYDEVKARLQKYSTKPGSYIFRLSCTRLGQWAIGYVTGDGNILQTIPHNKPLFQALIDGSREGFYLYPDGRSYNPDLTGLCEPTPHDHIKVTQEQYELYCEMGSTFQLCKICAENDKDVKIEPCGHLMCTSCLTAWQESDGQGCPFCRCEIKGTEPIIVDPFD

With `C[C@H](NCc1cc(C(=O)Nc2cccc([C@]3(c4nncn4C)C[C@@H](CC#N)C3)c2)c2nccn2c1)C1CCC1` [Compound A38, N-(3-((1s,3R)-3-(cyanomethyl)-1-(4-methyl-4H-1,2,4-triazol-3-yl)cyclobutyl)phenyl)-6-((((S)-1-cyclobutylethyl)amino)methyl)imidazo[1,2-a]pyridine-8-carboxamide], the IC50 amounted to 1.4 nM on Cbl-b (aa36-427) and 2.4 nM at Cbl (aa49-434).

Take `Cc1cnc2c(C(=O)Nc3cncc([C@]4(c5nncn5C)C[C@@H](C)C4)c3)cc(CNCC3CCC3)cn12` [Compound A56, 6-{[(cyclobutylmethyl)amino]methyl}-3-methyl-N-{5-[(1r, 3s)-3-methyl-1-(4-methyl-1,2,4-triazol-3-yl)cyclobutyl]pyridin-3-yl}imidazo[1,2-a]pyridine-8-carboxamide]: the IC50 was 1.5 nM on Cbl-b (aa36-427) and 4.1 nM at Cbl (aa49-434).

`Cn1cnnc1[C@]1(c2cccc(NC(=O)c3cc(CNCC4CCC4)c4c(n3)C(C)(C)CC4)c2)C[C@H](C)C1` [Compound C57, 4-(((cyclobutylmethyl)amino)methyl)-7,7-dimethyl-N-(3-((1s, 3s)-3-methyl-1-(4-methyl-4H-1,2,4-triazol-3-yl)cyclobutyl)phenyl)-6,7-dihydro-5H-cyclopenta[b]pyridine-2-carboxamide]: the IC50 stood at 0.9 nM on Cbl-b (aa36-427) and 3.4 nM at Cbl (aa49-434).

For the compound `C[C@H]1CCCN(Cc2cc(C(=O)Nc3cccc([C@]4(c5nncn5C)C[C@@H](CC#N)C4)c3)nc3cn[nH]c23)C1` [Compound B8, N-(3-((1s,3R)-3-(cyanomethyl)-1-(4-methyl-4H-1,2,4-triazol-3-yl)cyclobutyl)phenyl)-7-(((S)-3-methylpiperidin-1-yl)methyl)-1H-pyrazolo[4,3-b]pyridine-5-carboxamide], the IC50 at Cbl-b (aa36-427) was 1.8 nM; at Cbl (aa49-434) it was 21 nM.

Turning to `Cn1cnnc1[C@]1(c2cncc(NC(=O)c3cc(CNC4(C)CCC4)cn4c(Cl)cnc34)c2)C[C@H](C)C1` [Compound A82, 3-chloro-N-(5-((1s, 3s)-3-methyl-1-(4-methyl-4H-1,2,4-triazol-3-yl)cyclobutyl)pyridin-3-yl)-6-(((1-methylcyclobutyl)amino)methyl)imidazo[1,2-a]pyridine-8-carboxamide], the IC50 stood at 0.7 nM on Cbl-b (aa36-427) and 1.8 nM at Cbl (aa49-434).

For `C[C@@H]1CN(Cc2cc(C(=O)Nc3cccc([C@]4(c5nncn5C)C[C@@H](CC#N)C4)c3)nc3c2NCC3(C)C)CC[C@@H]1F` [Compound C47, 7-{[(3R,4S)-4-fluoro-3-methylpiperidin-1-yl]methyl}-3,3-dimethyl-N-{3-[(1s, 3s)-3-(cyanomethyl)-1-(4-methyl-1,2,4-triazol-3-yl)cyclobutyl]phenyl}-1H,2H-pyrrolo[3,2-b]pyridine-5-carboxamide], the IC50 on Cbl-b (aa36-427) was found to be 0.7 nM; on Cbl (aa49-434), 1.2 nM.

Consider `C[C@H](NCc1cc(C(=O)Nc2cccc([C@]3(c4nncn4C)C[C@@H](CC#N)C3)c2)nc2c1OCC2(C)C)C1CCC1` [Compound C28, 7-({[(1S)-1-cyclobutylethyl]amino}methyl)-3,3-dimethyl-N-{3-[(1s, 3s)-3-(cyanomethyl)-1-(4-methyl-1,2,4-triazol-3-yl)cyclobutyl]phenyl}-2H-furo[3,2-b]pyridine-5-carboxamide], for which the IC50 at Cbl-b (aa36-427) was 0.8 nM; on Cbl (aa49-434), 3.3 nM.

Turning to `Cn1cnnc1[C@]1(c2cccc(NC(=O)c3cc(CNC4(C)CC4)cn4ncnc34)c2)C[C@H](CC#N)C1` [Compound A89, N-(3-((1s, 3s)-3-(cyanomethyl)-1-(4-methyl-4H-1,2,4-triazol-3-yl)cyclobutyl)phenyl)-6-(((1-methylcyclopropyl)amino)methyl)-[1,2,4]triazolo[1,5-a]pyridine-8-carboxamide], the results for the IC50 at Cbl-b (aa36-427) and on Cbl (aa49-434) were 1.7 nM and 45 nM, respectively.

With `Cn1cnnc1[C@]1(c2cccc(NC(=O)c3cc(CNCC4(C)CCCC4)cn4c(Cl)cnc34)c2)C[C@H](CC#N)C1` [Compound A28, 3-chloro-N-(3-((1s, 3s)-3-(cyanomethyl)-1-(4-methyl-4H-1,2,4-triazol-3-yl)cyclobutyl)phenyl)-6-((((1-methylcyclopentyl)methyl)amino)methyl)imidazo[1,2-a]pyridine-8-carboxamide], the IC50 at Cbl-b (aa36-427) amounted to 1 nM; at Cbl (aa49-434), 2.4 nM.

Consider `Cn1cnnc1[C@]1(c2cccc(NC(=O)c3cc(CNCC4CCC4)c4c(n3)C(C)(C)CN4)c2)C[C@H](CC#N)C1` [Compound C30, N-(3-((1s, 3s)-3-(cyanomethyl)-1-(4-methyl-4H-1,2,4-triazol-3-yl)cyclobutyl)phenyl)-7-(((cyclobutylmethyl)amino)methyl)-3,3-dimethyl-2,3-dihydro-1H-pyrrolo[3,2-b]pyridine-5-carboxamide], for which the figures for the IC50 at Cbl-b (aa36-427) and on Cbl (aa49-434) were 1.4 nM and 3.3 nM, respectively.

With `CC[C@H](C)NCc1cc(C(=O)Nc2cncc([C@]3(c4nncn4C)C[C@@H](C)C3)c2)nc2cc[nH]c12` [Compound B47, 7-((((S)-sec-butyl)amino)methyl)-N-(5-((1s,3R)-3-methyl-1-(4-methyl-4H-1,2,4-triazol-3-yl)cyclobutyl)pyridin-3-yl)-1H-pyrrolo[3,2-b]pyridine-5-carboxamide], the IC50 at Cbl-b (aa36-427) stood at 2.2 nM; on Cbl (aa49-434), 6.1 nM.

`CC(C)CNCc1cc(C(=O)Nc2cncc([C@]3(c4nncn4C)C[C@@H](C)C3)c2)nc2cc[nH]c12` [Compound B2, 7-((isobutylamino)methyl)-N-(5-((1s, 3s)-3-methyl-1-(4-methyl-4H-1,2,4-triazol-3-yl)cyclobutyl)pyridin-3-yl)-1H-pyrrolo[3,2-b]pyridine-5-carboxamide]: the IC50 came out at 1.8 nM on Cbl-b (aa36-427) and 4.7 nM at Cbl (aa49-434).

As for `C[C@@H]1CN(Cc2cc(C(=O)Nc3cncc([C@]4(c5nncn5C)C[C@@H](C)C4)c3)nc3c2NCC3(C)C)CC[C@@H]1F` [Compound C58, 7-(((3R,4S)-4-fluoro-3-methylpiperidin-1-yl)methyl)-3,3-dimethyl-N-(5-((1s,3S)-3-methyl-1-(4-methyl-4H-1,2,4-triazol-3-yl)cyclobutyl)pyridin-3-yl)-2,3-dihydro-1H-pyrrolo[3,2-b]pyridine-5-carboxamide], the IC50 is 1.7 nM on Cbl-b (aa36-427) and 3.2 nM at Cbl (aa49-434).

As to `C[C@H](NCc1cc(C(=O)Nc2cccc([C@]3(c4nncn4C)C[C@@H](C)C3)c2)nc2cc[nH]c12)C1CCC1` [Compound B35, 7-((((S)-1-cyclobutylethyl)amino)methyl)-N-(3-((1s,3R)-3-methyl-1-(4-methyl-4H-1,2,4-triazol-3-yl)cyclobutyl)phenyl)-1H-pyrrolo[3,2-b]pyridine-5-carboxamide], the IC50 on Cbl-b (aa36-427) amounted to 0.7 nM; at Cbl (aa49-434), 1.1 nM.

With `C[C@H](NCc1cc(C(=O)Nc2cccc([C@]3(c4nncn4C)C[C@@H](C)C3)c2)nc2cc[nH]c12)C1CC1` [Compound B3, 7-((((S)-1-cyclopropylethyl)amino)methyl)-N-(3-((1s,3R)-3-methyl-1-(4-methyl-4H-1,2,4-triazol-3-yl)cyclobutyl)phenyl)-1H-pyrrolo[3,2-b]pyridine-5-carboxamide], the figures for the IC50 at Cbl-b (aa36-427) and at Cbl (aa49-434) were 0.7 nM and 1.8 nM, respectively.

Turning to `Cn1cnnc1[C@]1(c2cccc(NC(=O)c3cc(CNCC4CCCC4)c4c(n3)C(C)(C)CN4)c2)C[C@H](C)C1` [Compound C45, 7-{[(cyclopentylmethyl)amino]methyl}-3,3-dimethyl-N-{3-[(1r, 3s)-3-methyl-1-(4-methyl-1,2,4-triazol-3-yl)cyclobutyl]phenyl}-1H,2H-pyrrolo[3,2-b]pyridine-5-carboxamide], the IC50 on Cbl-b (aa36-427) is 1.3 nM; on Cbl (aa49-434), 5.4 nM.

For the compound `Cn1ccc2nc(C(=O)Nc3cccc([C@]4(c5nncn5C)C[C@@H](CC#N)C4)c3)cc(CNC3(C)CC3)c21` [Compound B57, N-(3-((1s, 3s)-3-(cyanomethyl)-1-(4-methyl-4H-1,2,4-triazol-3-yl)cyclobutyl)phenyl)-1-methyl-7-(((1-methylcyclopropyl)amino)methyl)-1H-pyrrolo[3,2-b]pyridine-5-carboxamide], the IC50 at Cbl-b (aa36-427) was found to be 1.3 nM; on Cbl (aa49-434), 15 nM.

For `CC[C@H](C)NCc1cc(C(=O)Nc2cncc([C@]3(c4nncn4C)C[C@@H](C)C3)c2)c2nccn2c1` [Compound A49, 6-((((S)-sec-butyl)amino)methyl)-N-(5-((1s,3R)-3-methyl-1-(4-methyl-4H-1,2,4-triazol-3-yl)cyclobutyl)pyridin-3-yl)imidazo[1,2-a]pyridine-8-carboxamide], the IC50 at Cbl-b (aa36-427) amounted to 3 nM; at Cbl (aa49-434) it was 11.9 nM.

With `C[C@H]1CCCN(Cc2cc(C(=O)Nc3cccc([C@]4(c5nncn5C)C[C@@H](CC#N)C4)c3)nc3cc[nH]c23)C1` [Compound B5, N-(3-((1s,3R)-3-(cyanomethyl)-1-(4-methyl-4H-1,2,4-triazol-3-yl)cyclobutyl)phenyl)-7-(((S)-3-methylpiperidin-1-yl)methyl)-1H-pyrrolo[3,2-b]pyridine-5-carboxamide], the IC50 on Cbl-b (aa36-427) worked out at 1.6 nM; on Cbl (aa49-434) it was 16 nM.
